According to patent publication US12234211B2, “Cycloolefin substituted heteroaromatic compounds and their use” (HUTCHISON MEDIPHARMA LIMITED, priority 2017, dated 2025):

Legend:
[1] = target: T1, IDH2-R140Q (Homo sapiens, UniProt P48735, R140Q); assay: Fluorescent determination of IDH2-R140Q cell activity (2-HG in U87MGR140Q cells); format: cell-based; conditions: 72 hours incubation, read-out: IC50 (2-HG inhibition)
T1 construct: expressed in transfected cells
T1 sequence (P48735 40-452 R140Q): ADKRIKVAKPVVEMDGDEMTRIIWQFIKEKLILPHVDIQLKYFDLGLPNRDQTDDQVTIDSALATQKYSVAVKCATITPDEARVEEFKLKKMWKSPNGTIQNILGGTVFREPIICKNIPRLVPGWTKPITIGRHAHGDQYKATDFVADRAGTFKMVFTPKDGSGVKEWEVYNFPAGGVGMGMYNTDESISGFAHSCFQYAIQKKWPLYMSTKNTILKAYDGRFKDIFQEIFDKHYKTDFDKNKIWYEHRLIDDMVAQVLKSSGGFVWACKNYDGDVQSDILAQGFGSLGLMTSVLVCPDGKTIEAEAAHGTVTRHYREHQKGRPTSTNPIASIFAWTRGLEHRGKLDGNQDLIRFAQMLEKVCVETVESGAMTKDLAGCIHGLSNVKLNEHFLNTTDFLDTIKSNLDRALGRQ

[2] = target: T2, IDH1-R132H (Homo sapiens, UniProt O75874, R132H); assay: Fluorescent determination of IDH1-R132H cell activity (2-HG in U87MGR132H cells); format: cell-based; conditions: 2-HG inhibition in U87MGR132H cells transfected with IDH1-R132H mutant plasmid
T2 construct: expressed in transfected cells; host or cells: U87MG cells (U87MGR132H)
T2 sequence (O75874 whole entry R132H): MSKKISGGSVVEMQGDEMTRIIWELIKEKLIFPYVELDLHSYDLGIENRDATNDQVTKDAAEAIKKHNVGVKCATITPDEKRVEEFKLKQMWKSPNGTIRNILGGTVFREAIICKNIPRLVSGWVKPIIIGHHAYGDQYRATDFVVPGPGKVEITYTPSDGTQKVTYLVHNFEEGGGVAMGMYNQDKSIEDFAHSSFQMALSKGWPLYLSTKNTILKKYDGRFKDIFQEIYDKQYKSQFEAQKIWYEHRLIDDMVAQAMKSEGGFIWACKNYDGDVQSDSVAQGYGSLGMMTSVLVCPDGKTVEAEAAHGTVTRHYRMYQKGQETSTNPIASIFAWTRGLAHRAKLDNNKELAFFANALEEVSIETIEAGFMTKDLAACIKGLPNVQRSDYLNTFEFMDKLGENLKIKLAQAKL

Compound: CC(C)(C)ONc1nc(Nc2ccnc(C(F)(F)F)c2)nc(C2=C(F)C(O)C(F)(F)CC2)n1 (centres unmarked) [Compound 275]
- IC50 [1]: 0.062 µM
- IC50 [2]: 8.02 µM

Compound: C[C@H](Nc1nc(NC2CC(F)(F)C2)nc(C2=C(F)C(O)CCC2)n1)C(F)(F)F (mixture of isomers) [Compound 32]
- IC50 [1]: 0.08 µM
- IC50 [2]: 0.61 µM

Compound: CCCNc1nc(N[C@H](C)C(F)(F)F)nc(C2=C(F)C(O)CCC2)n1 (some centres unmarked) [Compound 81]
- IC50 [1]: 0.099 µM
- IC50 [2]: 3.57 µM

Compound: CC(C)(C)ONc1nc(Nc2cc(C#N)ccn2)nc(C2=C(F)C(O)CCC2)n1 (centres unmarked) [Compound 60]
- IC50 [1]: 0.59 µM
- IC50 [2]: > 10 µM

Compound: CC(C)Nc1nc(N[C@H](C)C(F)(F)F)nc(C2=C(F)C(O)C(F)CC2)n1 (single isomer, unassigned) [Compound 96]
- IC50 [1]: 0.675 µM
- IC50 [2]: 2.7 µM

Compound: [2H]C1(O)CCCCC(c2nc(NC3CC(F)(F)C3)nc(N[C@H](C)C(F)(F)F)n2)=C1F (mixture of isomers) [Compound 24]
- IC50 [1]: 0.197 µM
- IC50 [2]: 0.769 µM

Compound: C[C@@H](Nc1nc(N[C@@H]2CCC(F)(F)C2)nc(C2=C(F)C(O)C(F)CC2)n1)C(F)(F)F (single isomer, unassigned) [Compound 233]
- IC50 [1]: 0.368 µM
- IC50 [2]: 0.628 µM

Compound: CC(C)Nc1nc(Nc2ccc3nscc3c2)nc(C2=C(F)C(O)CCC2)n1 (racemic) [Compound 229]
- IC50 [1]: 0.383 µM
- IC50 [2]: > 10 µM

Compound: [2H]C1(O)C(F)=C(c2nc(NOC(C)(C)C)nc(Nc3ccnc(C(F)(F)F)c3)n2)CCC1(F)F (centres unmarked) [Compound 276]
- IC50 [1]: 0.081 µM
- IC50 [2]: 8.37 µM

Compound: [2H]C1(O)C(F)=C(c2nc(NC3CC3)nc(N[C@H](C)C(F)(F)F)n2)CCC1(F)F (mixture of isomers) [Compound 279]
- IC50 [1]: 0.17 µM
- IC50 [2]: 9.43 µM

Compound: CCCNc1nc(N[C@H](C)C(F)(F)F)nc(C2=C(F)C(O)[C@H](F)CC2)n1 (single isomer, unassigned) [Compound 230]
- IC50 [1]: 0.658 µM
- IC50 [2]: > 10 µM

Compound: C[C@@H](Nc1nc(NC2CC(F)(F)C2)nc(C2=C(F)C(O)CCCC2)n1)C(F)(F)F (some centres unmarked) [Compound 40]
- IC50 [1]: 0.106 µM
- IC50 [2]: 0.45 µM

Compound: C[C@@H](Nc1nc(N[C@H](C)C(F)(F)F)nc(C2=C(F)C(O)C(F)CC2)n1)C(F)(F)F (stereo partly drawn) [Compound 267, 3-(4,6-Bis(((R)-1,1,1-trifluoropropan-2-yl)amino)-1,3,5-triazin-2-yl)-2,6-difluorocyclohex-2-en-1-D-1-ol]
- IC50 [1]: 1.33 µM
- IC50 [2]: 3.57 µM

Compound: CC(C)Nc1nc(NC2CC(F)(F)C2)nc(C2=C(F)C(O)C(F)(F)CC2)n1 (centres unmarked) [Compound 261]
- IC50 [1]: 0.094 µM
- IC50 [2]: 2.23 µM

Compound: CC(C)(C)ONc1nc(Nc2cc(Cl)ccn2)nc(C2=C(F)C(O)CCC2)n1 (centres unmarked) [Compound 61]
- IC50 [1]: 0.17 µM
- IC50 [2]: > 10 µM

Compound: CCCONc1nc(Nc2ccnc(C(F)(F)F)c2)nc(C2=C(F)C(O)C(F)(F)CC2)n1 (centres unmarked) [Compound 217]
- IC50 [1]: 0.069 µM
- IC50 [2]: > 10 µM

Compound: [2H]C1(O)C(F)=C(c2nc(NC(C)C)nc(NC3CC(F)(F)C3)n2)CCC1(F)F [Compound 274, 3-(4-((3,3-difluorocyclobutyl)amino)-6-(isopropylamino)-1,3,5-triazin-2-yl)-2,6,6-trifluorocyclohex-2-en-1-D-1-ol]
- IC50 [1]: 0.084 µM
- IC50 [2]: 3.28 µM

Compound: OC1C(F)=C(c2nc(Nc3ccnc(C(F)(F)F)c3)nc(N3CCC(F)(F)C3)n2)CCC1(F)F (centres unmarked) [Compound 218]
- IC50 [1]: 0.381 µM
- IC50 [2]: > 10 µM

Compound: CC(C)(C)ONc1nc(Nc2ccnc(Cl)c2)nc(C2=C(F)C(O)CCC2)n1 (centres unmarked) [Compound 47]
- IC50 [1]: 0.059 µM
- IC50 [2]: 5.64 µM

Compound: C[C@@H](Nc1nc(N)nc(C2=C(F)C(O)C(F)(F)CC2)n1)C(F)(F)F (stereo partly drawn) [Compound 280, 3-(4-Amino-6-(((R)-1,1,1-trifluoropropan-2-yl)amino)-1,3,5-triazin-2-yl)-2,6,6-trifluoro-cyclohex-2-en-1-ol]
- IC50 [1]: > 10 µM
- IC50 [2]: > 10 µM

Compound: [2H]C1(O)C=C(c2nc(N[C@H](C)C(F)(F)F)nc(N[C@H](C)C(F)(F)F)n2)CCC1(F)F (mixture of isomers) [Compound 282]
- IC50 [1]: 0.343 µM
- IC50 [2]: 0.444 µM

Compound: C[C@@H](Nc1nc(NCC2CC2)nc(C2=C(F)C(O)C(F)(F)CC2)n1)C(F)(F)F (mixture of isomers) [Compound 209]
- IC50 [1]: 0.078 µM
- IC50 [2]: 1.76 µM

Compound: C[C@@H](Nc1nc(NC2CC2)nc(C2=C(F)C(O)CCC2)n1)C(F)(F)F (some centres unmarked) [Compound 224]
- IC50 [1]: 0.137 µM
- IC50 [2]: 4.65 µM

Compound: CONc1nc(Nc2ccnc(C(F)(F)F)c2)nc(C2=C(F)C(O)C(F)(F)CC2)n1 (centres unmarked) [Compound 298]
- IC50 [1]: 0.62 µM
- IC50 [2]: > 10 µM

Compound: CC(C)(C)ONc1nc(Nc2cc(C(F)(F)F)ncn2)nc(C2=C(F)C(O)CCC2)n1 (centres unmarked) [Compound 75]
- IC50 [1]: 0.218 µM
- IC50 [2]: > 10 µM

Compound: CC(C)(C)ONc1nc(Nc2ccnc(F)c2)nc(C2=C(F)C(O)CCC2)n1 (centres unmarked) [Compound 73]
- IC50 [1]: 0.064 µM
- IC50 [2]: > 10 µM

Compound: C[C@@H](Nc1nc(NCC(F)(F)F)nc(C2=C(F)C(O)CCC2)n1)C(F)(F)F (some centres unmarked) [Compound 79]
- IC50 [1]: 0.106 µM
- IC50 [2]: 1.3 µM

Compound: C[C@H](Nc1nc(N[C@H](C)C(F)(F)F)nc(C2=C(F)C(O)CCC2)n1)c1ccccc1 (mixture of isomers) [Compound 157]
- IC50 [1]: 0.141 µM
- IC50 [2]: 4.35 µM

Compound: C[C@@H](Nc1nc(N[C@H](C)C(F)(F)F)nc(C2=CC(O)C(F)(F)CC2)n1)C(F)(F)F (mixture of isomers) [Compound 281]
- IC50 [1]: 0.69 µM
- IC50 [2]: 0.455 µM

Compound: C[C@@H](Nc1nc(N[C@H](C)C(F)(F)F)nc(C2=C(F)C(O)CCCC2)n1)C(F)(F)F (mixture of isomers) [Compound 21]
- IC50 [1]: 0.099 µM
- IC50 [2]: 0.234 µM

Compound: CC(C)(C)ONc1nc(Nc2ccnc(Cl)c2)nc(C2=C(F)C(O)C(F)(F)CC2)n1 (centres unmarked) [Compound 216]
- IC50 [1]: 0.082 µM
- IC50 [2]: 8.52 µM

Compound: CC(C)Nc1nc(Nc2ccc3ccccc3n2)nc(C2=C(F)C(O)CCC2)n1 (centres unmarked) [Compound 62]
- IC50 [1]: 1.34 µM
- IC50 [2]: 2.7 µM

Compound: C[C@H](Nc1nc(NCC(F)(F)F)nc(C2=C(F)C(O)C(F)(F)CC2)n1)C(F)(F)F (mixture of isomers) [Compound 270]
- IC50 [1]: 0.109 µM
- IC50 [2]: 2.85 µM

Compound: CCCNc1nc(N[C@H](C)C(F)(F)F)nc(C2=C(F)C(O)[C@@H](F)CC2)n1 (some centres unmarked) [Compound 231]
- IC50 [1]: 0.037 µM
- IC50 [2]: 1.53 µM

Compound: CC(C)(C)ONc1nc(Nc2ccnc(F)c2)nc(C2=C(F)C(O)C(F)(F)CC2)n1 (centres unmarked) [Compound 215]
- IC50 [1]: 0.079 µM
- IC50 [2]: > 10 µM

Compound: C[C@@H](Nc1nc(N[C@H](C)C(F)(F)F)nc(C2=C(F)C(O)C(F)CC2)n1)C(F)(F)F (stereo partly drawn) [Compound 269, 3-(4,6-Bis(((R)-1,1,1-trifluoropropan-2-yl)amino)-1,3,5-triazin-2-yl)-2,6-difluorocyclohex-2-en-1-D-1-ol]
- IC50 [1]: 0.137 µM
- IC50 [2]: 0.296 µM

Compound: C[C@H](Nc1nc(N[C@@H](C)C(F)(F)F)nc(C2=C(F)C(O)C(F)(F)CC2)n1)C(F)(F)F (mixture of isomers) [Compound 283]
- IC50 [1]: 0.174 µM
- IC50 [2]: 1.32 µM

Compound: OC1C(F)=C(c2nc(NOCC3CC3)nc(Nc3ccnc(C(F)(F)F)c3)n2)CCC1(F)F (centres unmarked) [Compound 213]
- IC50 [1]: 0.038 µM
- IC50 [2]: > 10 µM

Compound: CC(C)(O)CNc1nc(Nc2ccn3nccc3c2)nc(C2=C(F)C(O)CCC2)n1 (centres unmarked) [Compound 67]
- IC50 [1]: 2.37 µM
- IC50 [2]: > 10 µM

Compound: C[C@H](Nc1nc(N[C@@H](C)C(F)(F)F)nc(C2=C(F)C(O)CCC2)n1)C(F)(F)F (mixture of isomers) [Compound 14]
- IC50 [1]: 0.23 µM
- IC50 [2]: 1.33 µM

Compound: C[C@@H](Nc1nc(N[C@H](C)C(F)(F)F)nc(C2=C(F)C(O)CCC2)n1)C(F)(F)F (stereo partly drawn) [Compound 83, 3-(4,6-bis(((R)-1,1,1-trifluoropropan-2-yl)amino)-1,3,5-triazin-2-yl)-2-fluorocyclohex-2-en-1,6,6-D3-1-ol]
- IC50 [1]: 0.203 µM
- IC50 [2]: 0.282 µM

Compound: C[C@@H](Nc1nc(N[C@H](C)C(F)(F)F)nc(C2=C(F)C(O)CCC2)n1)C(F)(F)F (stereo partly drawn) [Compound 82, (*)3-(4,6-Bis(((R)-1,1,1-trifluoropropan-2-yl)amino)-1,3,5-triazin-2-yl)-2-fluorocyclohex-2-en-6,6-D2-1-ol]
- IC50 [1]: 0.075 µM
- IC50 [2]: 0.181 µM

Compound: C[C@H](Nc1nc(NOC(C)(C)C)nc(C2=C(F)C(O)C(F)(F)CC2)n1)C(F)(F)F (mixture of isomers) [Compound 293]
- IC50 [1]: 0.637 µM
- IC50 [2]: > 10 µM

Compound: C[C@@H](Nc1nc(NC2CC3(CCC3)C2)nc(C2=C(F)C(O)CCC2)n1)C(F)(F)F (mixture of isomers) [Compound 159]
- IC50 [1]: 0.205 µM
- IC50 [2]: 2.72 µM

Compound: CC(C)[C@@H](C)Nc1nc(N[C@H](C)C(F)(F)F)nc(C2=C(F)C(O)CCC2)n1 (mixture of isomers) [Compound 163]
- IC50 [1]: 0.162 µM
- IC50 [2]: 0.809 µM

Compound: C[C@@H](Nc1nc(NC2CCC(F)(F)CC2)nc(C2=CC(O)CCC2)n1)C(F)(F)F (some centres unmarked) [Compound 181]
- IC50 [1]: 0.177 µM
- IC50 [2]: 0.476 µM

Compound: [2H]C([2H])([2H])C([2H])(Nc1nc(N[C@H](C)C(F)(F)F)nc(C2=C(F)C(O)CCC2)n1)C([2H])([2H])[2H] (some centres unmarked) [Compound 52]
- IC50 [1]: 0.229 µM
- IC50 [2]: 2.25 µM

Compound: CCC(Nc1nc(N[C@H](C)C(F)(F)F)nc(C2=C(F)C(O)CCC2)n1)C(F)(F)F (mixture of isomers) [Compound 15]
- IC50 [1]: 0.259 µM
- IC50 [2]: 0.619 µM

Compound: CC(C)Nc1nc(N[C@H](C)C(F)(F)F)nc(C2=C(F)C(O)C(F)(F)CC2)n1 (some centres unmarked) [Compound 244]
- IC50 [1]: 0.053 µM
- IC50 [2]: 1.08 µM
